Reference: US20230000876A1, “TREATING CANCERS WITH A CYCLIN-DEPENDENT KINASE INHIBITOR” (Nuvation Bio Inc., priority 2021, published 2023)

Experiments:
KM12-luc = test: CellTiter-Glo anti-proliferation assay, KM12-luc; assay type: cell-based
Method: (§1) The anti-proliferation effect of 2 compounds (the compound of formula (I) and temozolomide) in 7 CNS metastasis cell lines (MOLT-4-luc, Nalm-6-luc, NCI-H460-luc, ACHN-luc2, PC-9-luc, H1975-luc, and KM12-luc) was evaluated.
(§2) The plating of cells and compound treatments are shown below in the plate map (Table 12). One plate was needed for the test of 2 compounds (the compound of formula (I) and temozolomide) in one cell line. The compound of formula (I) was tested from 10 μM, 3-fold serial dilution. Temozolomide was tested from 100 μM, 3-fold serial dilution.
(§3) All the cell lines were maintained in culture conditions at 37° C. in an atmosphere with 5% CO2 in air. The tumor cells were routinely subcultured. The cells growing in an exponential growth phase were harvested and counted for plating.
(§4) Cells were counted by haemocytometer with Trypan blue staining. Next, 135 μL of cell suspension were plated into the assay plates according to the plate map and 135 μL of assay medium into the blank wells. The plates were incubated at 37° C., 5% CO2, 95% air and 100% relative humidity overnight.
(§5) 4.4.4 Compound Plate (10×) Preparation and Compound Treatment • 10× concentrate compound plate preparation: Add 198 μL of assay medium into each well of the V-bottom plate; then transfer 2 μL of the stock compound solution of each concentration from the stock plate. Add 2 μL of DMSO into the Blank and Control wells. Pipette up and down to mix well. This V-plate is designated as the 10× concentrate compound plate. • For day 0 plate, add 15 μL of the DMSO-medium into the Control wells. The final DMSO concentration was 0.1%. Then directly proceed to cell viability assay. • For assay plate, add 15 μL of the compound-medium of each well from the 10× concentrate compound plate into the cells in 96-well assay plate according to the plate map. Add 15 μL of the DMSO-medium into the Blank and Control wells. The final DMSO concentration was 0.1%. • Return the assay plate into incubator and incubate for 6 days.
(§6) The procedures were performed according to the Promega CellTiter-Glo Luminescent Cell Viability Assay Kit manual (Promega-G7573). • The CellTiter-Glo buffer was thawed and equilibrated to room temperature prior to use. • CellTiter-Glo Substrate was equilibrated to room temperature prior to use. • The entire liquid volume of CellTiter-Glo Buffer was transferred into the amber bottle containing CellTiter-Glo Substrate to reconstitute the lyophilized enzyme/substrate mixture. This forms the CellTiter-Glo Reagent. • The contents were mixed by gently vortexing to obtain a homogeneous solution. • The plate was equilibrated and its contents to room temperature for approximately 30 minutes. 75 μL (equal to the half volume of culture medium present in each well) CellTiter-Glo • Reagent was added in each well. Plates were covered with aluminum foil to protect from light. • The contents were mixed for 2 minutes on an orbital shaker to induce cell lysis. • The plate was incubated at room temperature for 20 minutes to stabilize luminescent signal. • Record luminescence on the 2104 EnVision plate reader.
(§7) Inhibition rate (IR) of the tested compounds was determined by the following formula: IR (%)=(1−(RLU compound−RLU day0)/(RLU control−RLU day0))*100%. The inhibitions of different dose of compound were calculated in Excel file, and then were used to plot inhibition curves and evaluate related parameters, such as Min (%), Max (%) and GI50. The data were interpreted by GraphPad Prism.

ACHN-luc2 = test: CellTiter-Glo anti-proliferation assay, ACHN-luc2; assay type: cell-based
Method: as §1, §2, §3, §4, §5, §6, §7

[1] = tested on: U-87MG-luc orthotopic intracranial tumors; test: U-87MG-luc glioblastoma orthotopic intracranial model, survival; assay type: in vivo, female BALB/c nude mice
Method: U-87MG-luc cells were derived from U-87MG parental cells acquired from ATCC by stably introducing the gene that encodes the luciferase (luc) protein. The U-87MG-luc cells were cultured at 37° C. in an atmosphere of 5% CO2 in air. The tumor cells were routinely subcultured twice weekly. The cells growing in an exponential growth phase were harvested and counted for tumor inoculation.
3×10^5 U-87MG-luc tumor cells were micro-injected into the right lobe (caudate nucleus) of the brain of each mouse. A total of 94 mice were inoculated. Ten days after cell inoculation, bioluminescence were measured by Xenogen IVIS Lumina II machine, 70 mice were selected and randomly assigned into 7 groups based on bioluminescence intensity and bodyweight. The mice were dosed according to Table 25.

xBT474 breast tumor = xBT474 breast tumor model (ER-negative/HER2-positive); conditions: Group 5: Compound (I) 30 mg/kg PO QD*28 days
xMDA-MB-361 breast tumor = xMDA-MB-361 breast tumor model (ER-positive/HER2-positive); assay type: in vivo, female BALB/c nude mice; conditions: Group 5: Compound (I) 30 mg/kg PO QD*42 days
Method: Trastuzumab, tucatinib, Compound (I), and fulvestrant were tested in a xMDA-MB-361 breast tumor model (ER-positive/HER2-positive) on female BALB/c nude mice.

NCI-H460-luc = test: CellTiter-Glo anti-proliferation assay, NCI-H460-luc; assay type: cell-based
Method: as §1, §2, §3, §4, §5, §6, §7

SK-MEL-5 = test: Cell viability assay, melanoma cell line SK-MEL-5; assay type: cell-based
Method: as §5
as §6, with “This forms the CellTiter-Glo Reagent. • The contents were mixed by gently vortexing to obtain a homogeneous solution. • The plate was equilibrated and its contents to room temperature for approximately 30 minutes. 75 μL (equal to the half volume of culture medium present in each well) CellTiter-Glo • Reagent was added in each well.” left out
as §7, with “The data were interpreted by GraphPad Prism.” left out

[2] = inhibition rate, 6 days, Compound (I) from 10 μM, temozolomide from 100 μM, 3-fold, 9 points

In the case of `CC(C)N1CCOc2c(F)cc(-c3nc(Nc4ccc(C5CCN(C)CC5)cn4)ncc3F)cc21` [Compound (I), 5-fluoro-4-(8-fluoro-4-isopropyl-3,4-dihydro-2H-benzo[b][1,4]oxazin-6-yl)-N-(5-(1-methylpiperidin-4-yl)pyridin-2-yl)pyrimidin-2-amine], the GI50 (KM12-luc; KM12-Luc, 144 h, 6 days incubation, read-out: Absolute GI50) is reported as 654 nM, the “Max (%)” value (KM12-luc; [2]) is reported as 111.2% and the “Min (%)” value (KM12-luc; [2]) is reported as −15.2%. The GI50 (ACHN-luc2; ACHN-luc2, 144 h, 6 days incubation, read-out: Absolute GI50) was 47 nM, the “Max (%)” value (ACHN-luc2; [2]) was 102.9% and the “Min (%)” value (ACHN-luc2; [2]) was 6.0%. It also gave a Median survival ([1]; 1 mg/kg PO*QD (vehicle 37 days)) of 37 days, a Median survival ([1]; 3 mg/kg PO*QD (vehicle 37 days)) of 40.5 days and a Median survival ([1]; 10 mg/kg PO*QD (vehicle 37 days)) of 45 days. For the same compound, the Median survival ([1]; 30 mg/kg IV*QW (vehicle 37 days)) was 39.5 days, the Median survival ([1]; 30 mg/kg PO*QD (vehicle 37 days)) was 56 days and the “Survival compared to vehicle treated group” value ([1]; PO at 10 mg/kg and 30 mg/kg) was “significantly prolonged survival”. For the same compound, the “Tumor volume (mean ± SEM)” value (xBT474 breast tumor; Day 0) was 146 ± 8 mm^3, the “Tumor volume (mean ± SEM)” value (xBT474 breast tumor; Day 4) was 240 ± 20 mm^3 and the “Tumor volume (mean ± SEM)” value (xBT474 breast tumor; Day 7) was 250 ± 22 mm^3. For the same compound, the “Tumor volume (mean ± SEM)” value (xBT474 breast tumor; Day 11) was 347 ± 45 mm^3, the “Tumor volume (mean ± SEM)” value (xBT474 breast tumor; Day 14) was 408 ± 42 mm^3 and the “Tumor volume (mean ± SEM)” value (xBT474 breast tumor; Day 18) was 490 ± 59 mm^3. For the same compound, the “Tumor volume (mean ± SEM)” value (xBT474 breast tumor; Day 21) was 549 ± 73 mm^3, the “Tumor volume (mean ± SEM)” value (xBT474 breast tumor; Day 25) was 576 ± 79 mm^3 and the “Tumor volume (mean ± SEM)” value (xBT474 breast tumor; Day 28) was 617 ± 84 mm^3. For the same compound, the “Tumor volume (mean ± SEM)” value (xBT474 breast tumor; Day 32) was 658 ± 99 mm^3, the “Tumor volume (mean ± SEM)” value (xBT474 breast tumor; Day 35) was 721 ± 119 mm^3 and the “Tumor volume (mean ± SEM)” value (xBT474 breast tumor; Day 39) was 685 ± 107 mm^3. For the same compound, the “Tumor volume (mean ± SEM)” value (xBT474 breast tumor; Day 42) was 694 ± 120 mm^3, the “Tumor volume (mean ± SEM)” value (xBT474 breast tumor; Day 46) was 707 ± 116 mm^3 and the “Tumor volume (mean ± SEM)” value (xMDA-MB-361 breast tumor; Day 0) was 157 ± 11 mm^3. For the same compound, the “Tumor volume (mean ± SEM)” value (xMDA-MB-361 breast tumor; Day 3) was 202 ± 10 mm^3, the “Tumor volume (mean ± SEM)” value (xMDA-MB-361 breast tumor; Day 7) was 271 ± 34 mm^3 and the “Tumor volume (mean ± SEM)” value (xMDA-MB-361 breast tumor; Day 10) was 316 ± 43 mm^3. For the same compound, the “Tumor volume (mean ± SEM)” value (xMDA-MB-361 breast tumor; Day 14) was 342 ± 49 mm^3, the “Tumor volume (mean ± SEM)” value (xMDA-MB-361 breast tumor; Day 17) was 326 ± 70 mm^3 and the “Tumor volume (mean ± SEM)” value (xMDA-MB-361 breast tumor; Day 21) was 360 ± 84 mm^3. The “Tumor volume (mean ± SEM)” value (xMDA-MB-361 breast tumor; Day 24) was 429 ± 119 mm^3, the “Tumor volume (mean ± SEM)” value (xMDA-MB-361 breast tumor; Day 28) was 542 ± 146 mm^3 and the “Tumor volume (mean ± SEM)” value (xMDA-MB-361 breast tumor; Day 31) was 571 ± 150 mm^3. For the same compound, the “Tumor volume (mean ± SEM)” value (xMDA-MB-361 breast tumor; Day 35) was 587 ± 148 mm^3, the “Tumor volume (mean ± SEM)” value (xMDA-MB-361 breast tumor; Day 38) was 629 ± 164 mm^3 and the “Tumor volume (mean ± SEM)” value (xMDA-MB-361 breast tumor; Day 42) was 608 ± 145 mm^3. For the same compound, the GI50 (NCI-H460-luc; NCI-H460-Luc, 144 h, 6 days incubation, read-out: Absolute GI50) was 228 nM, the “Max (%)” value (NCI-H460-luc; [2]) was 101.1% and the “Min (%)” value (NCI-H460-luc; [2]) was 1.9%. The GI50 (SK-MEL-5; Homo sapiens, SK-MEL-5, read-out: Absolute GI50) was 1240 nM, the “Max (%)” value (SK-MEL-5; inhibition rate) was 116.12% and the “Min (%)” value (SK-MEL-5; inhibition rate) was −2.91%.
